The subject of one assay is tubulin. The following applies: natural substances binding to tubulin receptor sites; cited from earlier work.
Assay [1] concerns KB cells. Put plainly: Cytotoxicity / cytostasis test on the KB line, % inhibition of proliferation (crystal violet). Format: cell-based, human. The following applies: for % inhibition of proliferation: KB cells, 72 hours. On the procedure:
(§1) The cytotoxicity studies were carried out, on the one hand on the Vero line (normal monkey kidney cell), Table I, and on the other hand on the KB line (human carcinoma of the nasopharynx), Table II, according to the following method:
(§2) The products were introduced at the time of culturing, which is maintained for 72 hours. The products are tested at 100, 80, 40, 20 and 10 μm [sic]. […] The percentage values for inhibition of cell proliferation were measured by a colorimetric method with crystal violet, relative to control cultures containing DMSO (≤1%).

The test system of another assay is Vero cells. The experiment in a line: Cytotoxicity / cytostasis test on the Vero line, % inhibition of proliferation (crystal violet). It counts as cell-based, monkey. Particulars: 72 hours. On the procedure: as §1, §2
The subject of assay [2] is KB cells. The experiment in a line: Cytotoxicity / cytostasis test on the KB line, % inhibition of proliferation (crystal violet). It counts as cell-based, human. The following applies: 5 μm [sic], 72 hours.

`CC[C@]1(O)C[C@@H]2CN(CCc3c([nH]c4ccccc34)[C@@](C(=O)OC)(c3cc4c(cc3OC)N(C)[C@H]3[C@@](O)(C(=O)OC)[C@H](OC(C)=O)[C@]5(CC)C=CCN6CC[C@]43[C@@H]65)C2)C1` [vinblastine]: in the assay with tubulin, the “inhibition of tubulin polymerization” value was “inhibit its polymerization” and the spiralization of tubulin result is on record as “can cause its spiralization”.
Regarding `CCCCc1c(C)c(-c2ccccc2NC)c(CCC2OCCO2)n1C` [(23), 5-Butyl-1,4-dimethyl-2-(1,4-dioxa-2-ethylcarbaldehyde)-3-[2'-(N-methylamino)phenyl]pyrrole], the “% inhibition of proliferation” value with KB cells [1] (10 μm [sic]) came to 48%; in the assay with KB cells [1] (20 μm [sic]) it was 66%; in the assay with KB cells [1] (40 μm [sic]), 81%; in the assay on KB cells [1] (80 μm [sic]) it was 94%; with KB cells [1] (100 μm [sic]), 100%; in the assay on Vero cells (10 μm [sic]) it was 0%. The “% inhibition of proliferation” value with Vero cells (20 μm [sic]) is on record as 0%; in the assay with Vero cells (40 μm [sic]), 25%; in the assay on Vero cells (80 μm [sic]), 69%; in the assay on Vero cells (100 μm [sic]) it was 80%; in the assay with KB cells [2] it was 4%. Also, the “selectivity with respect to the KB line” value in the assay with KB cells [1] (at low concentration, KB versus Vero) is reported as “some degree of selectivity at low concentration with respect to the KB line”.
With `CC[C@]1(O)C[C@H]2CN(CCc3c([nH]c4ccccc34)[C@@](C(=O)OC)(c3cc4c(cc3OC)N(C=O)[C@H]3[C@@](O)(C(=O)OC)[C@H](OC(C)=O)[C@]5(CC)C=CCN6CC[C@]43[C@@H]65)C2)C1` [vincristine], the “inhibition of tubulin polymerization” value in the assay with tubulin was “inhibit its polymerization”.
With `CCOC(=O)c1[nH]cc(C)c1-c1ccccc1NC(=O)CNC(=O)OCc1ccccc1` [(6), Ethyl 3-[2'-(N-benzyloxycarbonylglycylamido)phenyl]-4-methyl-2-pyrrolecarboxylat], the “% inhibition of proliferation” value in the assay on KB cells [1] (10 μm [sic]) was 0%; in the assay with KB cells [1] (20 μm [sic]), 22%; in the assay on KB cells [1] (40 μm [sic]), 31%; with KB cells [1] (80 μm [sic]), 52%; in the assay on KB cells [1] (100 μm [sic]) it was 68%; with Vero cells (10 μm [sic]), 0%. Also, the “% inhibition of proliferation” value in the assay on Vero cells (20 μm [sic]) came out at 0%; in the assay on Vero cells (40 μm [sic]), 4%; in the assay on Vero cells (80 μm [sic]), 48%; in the assay on Vero cells (100 μm [sic]), 78%.
Take `COc1cc([C@@H]2c3cc4c(cc3[C@H](O)[C@H]3COC(=O)[C@H]23)OCO4)cc(OC)c1OC` [podophyllotoxin]: the “inhibition of tubulin polymerization” value with tubulin is reported as “inhibit its polymerization”.
`CCCCc1c(C)c(-c2ccccc2N(C)C(=O)OCc2ccccc2)c(CCC2OCCO2)n1C` [(22), 5-Butyl-1,4-dimethyl-2-(1,4-dioxa-2-ethylcarbaldehyde)-3-[2'-(N-benzyloxycarbonyl-N-methylamino)phenyl]pyrrole]: the “% inhibition of proliferation” value was determined as 0% in the assay on KB cells [1] (10 μm [sic]); 0% with KB cells [1] (20 μm [sic]); 0% with KB cells [1] (40 μm [sic]); 44% in the assay with KB cells [1] (80 μm [sic]); 59% with KB cells [1] (100 μm [sic]); 0% in the assay with Vero cells (10 μm [sic]). In addition, the “% inhibition of proliferation” value is reported as 0% with Vero cells (20 μm [sic]), 0% in the assay with Vero cells (40 μm [sic]), 54% with Vero cells (80 μm [sic]) and 54% in the assay with Vero cells (100 μm [sic]).
Turning to `Cc1c[nH]c2c(=O)[nH]c3ccccc3c12` [(4)], the “% inhibition of proliferation” value with KB cells [1] (10 μm [sic]) is 0%; in the assay on KB cells [1] (20 μm [sic]) it was 72%; in the assay with KB cells [1] (40 μm [sic]), 100%; in the assay on KB cells [1] (80 μm [sic]), 60%; in the assay with KB cells [1] (100 μm [sic]), 68%; with Vero cells (10 μm [sic]), 0%. Moreover, the “% inhibition of proliferation” value is listed as 0% in the assay on Vero cells (20 μm [sic]), 45% in the assay on Vero cells (40 μm [sic]), 49-70% with Vero cells (80 μm [sic]) and 69-84% with Vero cells (100 μm [sic]).
Regarding `Cc1cn(C)c(C(=O)N(C(=O)NC2CCCCC2)C2CCCCC2)c1-c1ccccc1[N+](=O)[O-]` [(10), 1,4-Dimethyl-3-(2'-nitrophenyl)pyrrole-2(N,N'-cyclohexylureidocarboxamide)], the “% inhibition of proliferation” value came out at 0% in the assay on KB cells [1] (10 μm [sic]); 0% in the assay on KB cells [1] (20 μm [sic]); 0% with KB cells [1] (40 μm [sic]); 27% in the assay with KB cells [1] (80 μm [sic]); 45% in the assay with KB cells [1] (100 μm [sic]); 0% in the assay on Vero cells (10 μm [sic]). Further, the “% inhibition of proliferation” value came out at 0% in the assay on Vero cells (20 μm [sic]), 25% in the assay on Vero cells (40 μm [sic]), 100% in the assay with Vero cells (80 μm [sic]) and 100% in the assay on Vero cells (100 μm [sic]).
Consider `CCOC(=O)c1[nH]cc(C)c1-c1ccccc1` [(1), Ethyl 4-methyl-3-phenyl-2-pyrrolecarboxylate], for which the “% inhibition of proliferation” value in the assay on KB cells [1] (10 μm [sic]) is 0%; with KB cells [1] (20 μm [sic]), 0%; in the assay with KB cells [1] (40 μm [sic]), 0%; in the assay with KB cells [1] (80 μm [sic]), 35%; with KB cells [1] (100 μm [sic]), 43%; in the assay with Vero cells (10 μm [sic]) it was 0%. Besides, the “% inhibition of proliferation” value with Vero cells (20 μm [sic]) was 0%; in the assay with Vero cells (40 μm [sic]), 20%; with Vero cells (80 μm [sic]) it was 46%; in the assay on Vero cells (100 μm [sic]), 63%.
Turning to `COC(=O)c1[nH]cc(C)c1-c1cccc([N+](=O)[O-])c1` [(2), Methyl 4-methyl-3-(3'-nitrophenyl)-2-pyrrolecarboxylate], the “% inhibition of proliferation” value is listed as 0% in the assay on KB cells [1] (10 μm [sic]); 0% in the assay on KB cells [1] (20 μm [sic]); 10% with KB cells [1] (40 μm [sic]); 50% with KB cells [1] (80 μm [sic]); 72% in the assay on KB cells [1] (100 μm [sic]); 0% with Vero cells (10 μm [sic]). The “% inhibition of proliferation” value stood at 3% in the assay on Vero cells (20 μm [sic]), 38% in the assay on Vero cells (40 μm [sic]), 75% in the assay with Vero cells (80 μm [sic]) and 77% in the assay on Vero cells (100 μm [sic]).

(Values after US5189055A, “Phenylpyrrolic compounds used as drugs, their preparation and application” (Centre National de la Recherche Scientifique (CNRS), priority 1988, dated 1993).)
